The test system of test [1] is MAPK. The experiment in a line: Western blotting of phosphorylated MAPK in BT-474 cells. It is filed as cell-based, human. Conditions: Example 2, 4-fold dilution series from 1 µmol/L in 5 steps, 2 hours. Here is the method: (§1) Human HER2-expressing human breast cancer cell line BT-474 (purchased from American Tissue Culture Collection (ATCC)) was seeded into a 24-multiwell plate (BT-474: 1.2 x 10^5 cells/well), and cultured overnight in a carbon dioxide gas incubator (5% CO2, 37°C). A 4-fold dilution series of a mitochondrial respiratory chain complex inhibiting compound (complex I: rotenone, complex III: antimycin, complex V: oligomycin: Wako Pure Chemical Industries) was added starting from a final concentration of 1 µmol/L in 5 steps while continuing culture. After 2 hours, the broth was removed, and the cells were lysed with an SDS sample buffer (200 µL). Western blotting analysis was performed as follows. Specifically, this cell lysate (8 µL) was separated by an SDS-PAGE method (gel concentration: 7.5-15%) (Analytical Biochemistry, No. 166, pp. 368-379, 1987), and transferred to a nitrocellulose membrane (BioRad). Then, an antibody specific to phosphorylated HER2 (Cell signaling technology, Code# 2244), an anti-phosphorylated Akt antibody specific to downstream antiapoptotic signal transducing molecule Akt (Cell signaling technology, Code# 9271) and an anti-phosphorylated MAPK antibody specific to downstream proliferation signal transducing molecule MAPK (Cell signaling technology, Code# 9101) were used to detect the antibody with an ECL system (Amersham) to quantify the amount of phosphorylated protein by an image analysis.
(§2) Human HER2-expressing human cancer cell line BT-474 (purchased from ATCC) was seeded into a 24-multiwell plate (1.2 x 10^5 cells/well) and cultured overnight in a carbon dioxide gas incubator (20% O2, 5% CO2, 37°C). A 3-fold dilution series of metformin that activates AMPK (The Journal of Biological Chemistry, Vol. 279, No. 42, pp. 43940-43951, 2004) was added starting from a final concentration of 15 mmol/L in 5 steps while continuing culture. Two hours later, the broth was removed and the cells were lysed with an SDS sample buffer (200 µL). This cell lysate (8 µL) was separated by an SDS-PAGE method (gel concentration: 7.5-15%) (Analytical Biochemistry, No. 166, pp. 368-379, 1987). Then, western blotting analysis was performed in the same manner as in Example 1 to quantify phosphorylated HER2, phosphorylated Akt and phosphorylated MAPK.
In general terms: In western blotting, separated proteins are transferred to a membrane and probed.

Test [2] deals with Akt. The experiment in a line: Western blotting of phosphorylated Akt in BT-474 cells. It counts as cell-based, human. The settings on record: Example 2, 4-fold dilution series from 1 µmol/L in 5 steps, 2 hours. How it is done:
as §1, §2

As to antimycin, the MAPK phosphorylation result in test [1] is “suppressions of Akt and MAPK phosphorylations were also confirmed”. Moreover, the Akt phosphorylation result in test [2] is “suppressions of Akt and MAPK phosphorylations were also confirmed”.
